Results as given in US20260224462A1, “ANTI-AGING COMPOSITION” (MITSUBISHI CORPORATION LIFE SCIENCES LIMITED, priority 2023, published 2026).

Key:
Assay type in all cases: cell-based
Normal human fibroblasts [1] = experiment: Suppression of decrease in proliferation capability of aging-induced normal human fibroblasts (MTT assay); details: 50 μM or 100 μM, aging induced with 0.5 mM hydrogen peroxide; compared with only aging induction and with 100 μM reduced glutathione; p<0.005; FIG. 1
Protocol: Normal human fibroblasts were seeded in 96 well plates (3.0×10^3 cells/well, N=3) and precultured for 24 hours (5% CO2, 37° C.). As a medium, MEM-α, nucleosides medium (Gibco) containing fetal bovine serum (10% of serum-free medium was externally added) was used. Thereafter, the wells were washed once with PBS (−), then replaced with MEM-α, nucleoside medium containing fetal bovine serum (5% of serum-free medium was externally added) dissolved so that the final concentration of Sample 1 or Sample 2 was 50 μM or 100 μM, and further incubated for 30 minutes. Thereafter, fibroblasts were treated with a medium adjusted so that the final concentration of hydrogen peroxide was 0.5 mM to induce aging. Thereafter, an MTT assay was performed according to a conventional method, and the survival rate of fibroblasts was calculated as a relative value when the survival rate of cells in the test section in which neither treatment nor aging induction was performed was taken as 100.
For comparison, a test section in which only aging induction was performed and a test section in which reduced glutathione was 100 μM was set instead of Sample 1. […]

[2] = tested on: Normal human epidermal keratinocytes; experiment: Suppression of decrease in proliferation capability of aging-induced normal human epidermal keratinocytes (MTT assay); details: 50 μM or 100 μM, aging induced with 0.5 mM hydrogen peroxide; compared with only aging induction; FIG. 2
Protocol: Normal human epidermal keratinocytes were seeded in 96 well plates (1.0×10^4 cells/well, N=3) and precultured for 24 hours (5% CO2, 37° C.). As a medium, a commercially available keratinocyte growth medium (PromoCell) was used. Thereafter, the wells were washed once with PBS (−), then replaced with a keratinocyte growth medium dissolved so that the final concentration of Sample 1 was 50 μM or 100 μM, and further incubated for 30 minutes. […] Thereafter, an MTT assay was performed according to a conventional method, and the survival rate of normal human epidermal keratinocytes was calculated as a relative value when the survival rate of cells in a test section in which neither the treatment with oxidized glutathione trisulfide nor the aging induction was performed was taken as 100. For comparison, a test section in which only aging induction was performed without treatment with oxidized glutathione trisulfide was set. Regarding the survival rate, a significant difference test (t-test, two-tailed) between the two groups of the test section of Sample 1 and the test section in which only aging induction was performed was performed respectively.

Normal human fibroblasts [3] = experiment: Suppression of decrease in hyaluronic acid production capability due to aging induction, fibroblasts (ELISA); details: 50 μM or 100 μM, 0.5 mM hydrogen peroxide; for amount of hyaluronic acid compared with test section of only aging induction: 24 h, ELISA, p<0.05, FIG. 3; for hyaluronic acid production capability compared with test sections that did not induce aging: no significant difference between the two groups, FIG. 3
Protocol: Normal human fibroblasts were seeded in 24 well plates (8.0×10^4 cells/well, N=3) and precultured for 24 hours (5% CO2, 37° C.). As a medium, MEM-α, nucleosides medium (Gibco) containing fetal bovine serum (10% of serum-free medium was externally added) was used. Thereafter, the wells were washed once with PBS (−), then replaced with MEM-α, nucleoside medium containing fetal bovine serum (5% of serum-free medium was externally added) dissolved so that the final concentration of Sample 1 or Sample 2 was 50 μM or 100 μM, and further incubated for 30 minutes. Thereafter, fibroblasts were treated with a medium adjusted so that the final concentration of hydrogen peroxide was 0.5 mM to induce aging. Thereafter, the culture medium was changed to MEM-α, nucleoside medium containing fetal bovine serum (5% of serum-free culture medium was externally added) and incubated for 24 hours, and then the amount of hyaluronic acid was quantified by ELISA using a hyaluronic acid quantification kit (Cosmo Bio Inc.).
The hyaluronic acid production amount in each test section was shown as a relative value when the hyaluronic acid production amount in each sample and the test section in which aging induction was not performed was taken as 100. Regarding the hyaluronic acid production amount, a significant difference test (t-test, two-tailed) between the two groups of the test section for Sample 1 and the test section for which only the aging induction was performed respectively, and a significant difference test between the test section for Sample 2 and the test section for which only the aging induction was performed were each performed, and “*(p<0.05)” was marked for those in which a significant difference was recognized.

[4] = tested on: Normal human epidermal keratinocytes; experiment: Suppression of decrease in hyaluronic acid production capability due to aging induction, keratinocytes (ELISA); details: 50 μM, 0.5 mM hydrogen peroxide
Protocol: Normal human epidermal keratinocytes were seeded in 24 well plates (1.0×10^5 cells/well, N=3) and precultured for 24 hours (5% CO2, 37° C.). As a medium, a commercially available keratinocyte growth medium (PromoCell) was used. Thereafter, the wells were washed once with PBS (−), then replaced with a keratinocyte growth medium dissolved so that the final concentration of Sample 1 was 50 μM, and further incubated for 30 minutes. Thereafter, normal human epidermal keratinocytes were treated with a medium adjusted to have a final concentration of hydrogen peroxide of 0.5 mM to induce aging. Thereafter, the medium was replaced with a new keratinocyte growth medium and incubated for 24 hours, and then the amount of hyaluronic acid was quantified by an ELISA method using a hyaluronic acid quantification kit (Cosmo Bio). For comparison, a test section not treated with oxidized glutathione trisulfide was provided.
The hyaluronic acid production amount in each of the test sections was shown as a relative value when the hyaluronic acid production amount in the test section in which neither oxidized glutathione trisulfide treatment nor aging induction was performed was taken as 100. […]

B16 mouse melanoma cells = experiment: Melanin production suppression test in cultured cells; details: FIG. 5; for melanin production amount compared with the reference sample (absorbance at 405 nm): 0.02 mM or 0.05 mM at melanin induction with α-MSH 200 nM, p<0.01; for concentration needed for melanin production suppressing effect compared with kojic acid (1 mM) and reduced glutathione (3 mM): 0.02 mM or 0.05 mM of sample
Protocol: B16 mouse melanoma cells were seeded in a 6 well plate (2.0×10^4 cells/well), and cultured for 24 hours in D-MEM medium to which 5% fetal bovine serum was added with respect to the medium (5% CO2, 37° C.). […] The obtained pellets were washed twice with PBS (−), 150 μL of a 1 M sodium hydroxide solution was then added, and the mixture was treated at 100° C. for 10 minutes to dissolve the pellets, thereby preparing a reference sample. […] One hundred μL of a sample of each test section was added to a 96 well plate, and the absorbance at 405 nm was measured with a microplate reader (n=3). […] The significant difference test was performed on the measured value of the reference sample by the Dunnett method (*p<0.05, **p<0.01.).

[5] = biological target: T1, tyrosinase derived from B16 mouse melanoma cells (Mus musculus, UniProt P11344); experiment: Tyrosinase activity suppression test; details: 0.05 mM or 0.1 mM at melanin induction; L-DOPA, absorbance at 490 nm corrected by protein concentration; FIG. 6
T1 construct: a protein extract containing tyrosinase derived from B16 mouse melanoma cells; endogenous in cells; host or cells: B16 mouse melanoma cells, alpha-MSH induced
T1 sequence (P11344 19-533): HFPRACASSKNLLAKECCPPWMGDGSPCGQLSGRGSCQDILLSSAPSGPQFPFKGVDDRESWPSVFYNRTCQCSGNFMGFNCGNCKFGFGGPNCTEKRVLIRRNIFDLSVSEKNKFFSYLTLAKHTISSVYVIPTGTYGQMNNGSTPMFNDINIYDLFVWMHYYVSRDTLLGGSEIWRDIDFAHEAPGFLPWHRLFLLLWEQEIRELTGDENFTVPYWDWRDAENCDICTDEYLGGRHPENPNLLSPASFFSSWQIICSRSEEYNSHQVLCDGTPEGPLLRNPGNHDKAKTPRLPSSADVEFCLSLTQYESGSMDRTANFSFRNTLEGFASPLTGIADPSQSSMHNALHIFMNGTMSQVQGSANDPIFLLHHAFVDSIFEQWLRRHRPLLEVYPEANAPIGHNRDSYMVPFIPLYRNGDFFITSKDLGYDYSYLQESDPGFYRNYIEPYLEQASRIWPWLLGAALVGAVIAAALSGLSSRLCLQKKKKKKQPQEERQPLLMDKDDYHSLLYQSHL
Protocol: The tyrosinase activity inhibitory effect can be known by comparing the value of the absorbance at 490 nm corrected by the protein concentration measured by adding the test substance at the time of melanin induction and the same operation with the value of the test section to which the test substance is not added.
B16 mouse melanoma cells were seeded in a 6 well plate (2.0×10^4 cells/well), and cultured for 24 hours in D-MEM medium to which 5% fetal bovine serum was added with respect to the medium (5% CO2, 37° C.). Thereafter, α-MSH (final concentration: 200 nM) was added, and the cells were cultured in a serum-free D-MEM medium for 24 hours to induce melanin. […] The protein concentration of the obtained sample was measured by the BCA method.
The same operation was performed except that melanin induction was not performed, and a reference sample was obtained. […] Fifty μL of a sample of each test section was placed in a 96 well plate (n=3), 50 μL of 0.8 mg/mL L-DOPA was added, the mixture was reacted at 37° C. for 1 hour, and then the absorbance at 490 nm was measured with a microplate reader. The absorbance was corrected by the protein concentration, and the relative value of each test section was calculated when the measured value of the reference sample was 100. […]

| SMILES | cell proliferation rate (survival rate of fibroblasts, MTT, relative value) (Normal human fibroblasts [1]) | cell proliferation rate (survival rate of keratinocytes, MTT, relative value) [2] | amount of hyaluronic acid compared with test section of only aging induction (Normal human fibroblasts [3]) | hyaluronic acid production capability compared with test sections that did not induce aging (Normal human fibroblasts [3]) | amount of hyaluronic acid compared with test section of only aging induction ([4]; 24 h, ELISA, p<0.05, FIG. 4) | hyaluronic acid production capability compared with control group in which aging is not induced ([4]; no significant difference between the two groups, FIG. 4) | melanin production amount compared with the reference sample (absorbance at 405 nm) (B16 mouse melanoma cells) | concentration needed for melanin production suppressing effect compared with kojic acid (1 mM) and reduced glutathione (3 mM) (B16 mouse melanoma cells; α-MSH 200 nM) | tyrosinase activity compared with test section in which only melanin induction was performed [5] | tyrosinase activity compared with the reference sample (no melanin induction) [5] | melanin production suppressing effect compared with 0.02 mM test section of Sample 1 (B16 mouse melanoma cells; reduced glutathione final concentration 3 mM, α-MSH 200 nM) |
| --- | --- | --- | --- | --- | --- | --- | --- | --- | --- | --- | --- |
| N[C@@H](CCC(=O)N[C@@H](CSSSC[C@H](NC(=O)CC[C@H](N)C(=O)O)C(=O)NCC(=O)O)C(=O)NCC(=O)O)C(=O)O [Sample 1, oxidized glutathione trisulfide] | significant cell proliferation rate | significant cell proliferation rate | significantly higher | same hyaluronic acid production capability | significantly higher | same hyaluronic acid production capability | significantly low | exhibited a melanin production suppressing effect at a lower concentration | significantly lower | same degree of tyrosinase activity as the reference sample |  |
| CC(=O)N[C@@H](CSSSC[C@H](NC(C)=O)C(=O)O)C(=O)O [Sample 2, oxidized NAC trisulfide] | significant cell proliferation rate |  | significantly higher | The same result was obtained |  |  | significantly low | melanin production can be suppressed at a lower concentration |  |  |  |
| N[C@@H](CCC(=O)N[C@@H](CS)C(=O)NCC(=O)O)C(=O)O [reduced glutathione, reference compound] |  |  |  |  |  |  |  |  |  |  | same melanin production suppressing effect |
